# Test results taken from patent US5281710A, “Dynemicin analogs: synthesis, methods of preparation and use” (The Scripps Research Institute, priority 1992, dated 1994).
# “Also recorded” adds a separate entry of the source.
# Experiments:
# [1] = tested on: MOLT-4 (Leukemia) cell line; assay: cells; type: cell-based; conditions: Homo sapiens, MOLT-4, Molt-4 leukemia cell line; read-out: IC50
# Method: (§1) In addition to the screening already discussed, several of the before-described compounds and chimeras were screened against several or all of a panel of ten to twenty-five cancerous cell lines as target cells and seven "normal" cell preparations. This screening utilized a sulforhodamine B cytotoxidity assay as discussed below.
# (§2) IC50 values; i.e., the concentration of Compound required to kill one-half of the treated cells, were then calculated.
# [2] = tested on: NHDF normal human dermal fibroblasts; assay: cells; type: cell-based; conditions: NHDF
# Method: as §1, §2
# NHDF Normal human dermal fibroblasts
# [3] = tested on: SK-Mel-28 melanoma cells; assay: Sulforhodamine B cytotoxicity, SK-Mel-28; type: cell-based; conditions: Homo sapiens, SK-MEL-28, SK-Mel-28; read-out: IC50
# Method: as §1, §2
# [4] = tested on: Ovcar-3 ovarian carcinoma cells; assay: Sulforhodamine B cytotoxicity, Ovcar-3; type: cell-based; conditions: Homo sapiens, OVCAR-3, Ovcar-3; read-out: IC50
# Method: as §1, §2
# [5] = tested on: HT-29 colon carcinoma cells; assay: Sulforhodamine B cytotoxicity, HT-29; type: cell-based; conditions: Homo sapiens, HT-29, colon carcinoma H-29 (Table 4) / HT-29 (Table 5); read-out: IC50
# Method: as §1, §2
# [6] = tested on: MCF-7 breast carcinoma cells; assay: Sulforhodamine B cytotoxicity, MCF-7; type: cell-based; conditions: Homo sapiens, MCF7, MCF-7; read-out: IC50
# Method: as §1, §2
# [7] = tested on: MCF-7(ADR) breast carcinoma cells; assay: Sulforhodamine B cytotoxicity, MCF-7/ADR; type: cell-based; conditions: Homo sapiens, NCI/ADR-RES, Adriamycin resistant
# Method: as §1, §2
# [8] = tested on: H-322 lung carcinoma cells; assay: Sulforhodamine B cytotoxicity, H-322; type: cell-based; conditions: NCI-H322; H-322; read-out: IC50
# Method: as §1, §2
# [9] = tested on: Capan-1 pancreatic carcinoma cells; assay: Sulforhodamine B cytotoxicity, Capan-1; type: cell-based; conditions: Homo sapiens, CAPAN-1, Capan-1; read-out: IC50
# Method: as §1, §2
# [10] = tested on: HL-60 promyeocytic leukemia cells; assay: Sulforhodamine B cytotoxicity, HL-60; type: cell-based; conditions: Homo sapiens, HL-60, HL-60; read-out: IC50
# Method: as §1, §2
# [11] = tested on: PC-3 prostate carcinoma cells; assay: Sulforhodamine B cytotoxicity, PC-3; type: cell-based; conditions: Homo sapiens
# Method: as §1, §2
# [12] = tested on: SIHA cervical carcinoma cells; assay: Sulforhodamine B cytotoxicity, SIHA; type: cell-based; conditions: Homo sapiens
# Method: as §1, §2
# [13] = tested on: NHEK normal human epidermal keratinocytes; assay: Sulforhodamine B cytotoxicity, NHEK; type: cell-based; conditions: normal cells
# Method: as §1, §2
# NHEK Normal human epidermal keratinocytes
# [14] = tested on: HMEC human mammary epithelial cells; assay: Sulforhodamine B cytotoxicity, HMEC; type: cell-based; conditions: Homo sapiens, normal cells
# Method: as §1, §2
# HMEC Human mammary epithelial cells
# [15] = tested on: CHO Chinese hamster ovary cells; assay: Sulforhodamine B cytotoxicity, CHO; type: cell-based; conditions: Cricetulus griseus; CHO, normal cells
# Method: as §1, §2
# [16] = Water solubility; type: physicochemical
# [17] = tested on: φX174 Form I DNA; conditions: literature; cited from earlier work
# [18] = mice, comparison value; cited from earlier work
# [19] = tested on: cancer cell lines; assay: cells; type: cell-based; conditions: Average data obtained from 5~10 cell lines; read-out: IC50 (average)
# Method: as §1
# SULFORHODAMINE B CYTOTOXICITY ASSAY
# a. Stock drug solutions were prepared by dissolving drug in the appropriate solvent (determined during chemical characterization studies) and sterile filtering the drug-solvent solution through a sterile 0.2μ filter unit. An aliquot was taken from each filtered drug solution and the O.D. was measured to determine the drug concentration.
# f. Incubate (37° C., 5-10 percent CO2 in humidified incubator) plates for a total of 72 hours. Check plates at 24 hour intervals microscopically for signs of cytotoxicity.
# as §2
# All other cells or cell lines were obtained from the American Type Culture Collection (ATCC) (all except CHO cells are human or mouse cancer cell lines as described by the ATC).
# Tables 1 and 2 herein below provide average IC50 data from five to all ten of the above cancer cells lines for fused ring enediyne compounds disclosed herein. Those tables provide a generic structure and a description of the R group of that generic structure for each compound. Compound numbers as noted hereinbefore are also provided. Table 3 contains data for two fused-ring enediyne compounds (Compounds 47 and 120) as well as data for six chimers. Table 4 contains cancer cell and noraml cell cytotoxicity data for one select fused ring enediyne, Compound 153 against a number of "normal" cell preparations and tumor cell lines. Table 5 contains cancer cell and normal cell cytotoxicity data for another fused ring enediyne, Compound 250 against a similar panel of cells.
# [20] = tested on: MB49 murine bladder carcinoma cells; assay: 6-well cytotoxicity assay, MB49; type: cell-based; conditions: MB-49
# Method: MIA PaCa-2 cells, MB-49, CV-1 or WI-38 cells were loaded into each well of a 6-well plate at a density of 100,000 cells/well in 3 ml culture medium. They were incubated for 4 hours (37° C., 7 percent CO2). Then 6 microliters of solution containing a compound to be assayed were added into 3 ml of medium (RPMI-1640, with 5 percent fetal bovine serum and 1 percent glutamine) in a 500X dilution so that in one well ethanol was added to make a 0.2 percent ethanol control. The plates were then incubated for 4 days (37° C., 7 percent CO2). The medium was then drained, crystal violet dye (Hucker formula) was added to cover the well bottoms and then they were rinsed with tap water until rinses were clear. The stained cells were solubilized for quantitation with Sarkosyl solution (N-Lauryl sarcosine, 1 percent in water) at 3 ml/well. The absorbance of the solution was then read at 590-650 nm.
smiles,measurement,setting,value
C[N+](C)(C)CC(=O)OCCOc1ccc2c(c1)[C@@]13O[C@]14CCC[C@H]3C#C/C=C\C#C[C@@H]4N2C(=O)OCCS(=O)(=O)c1ccccc1 (relative stereo) [Compound 250],IC50,[1],~100 µM
same,IC50,"[2]; Homo sapiens, normal cells, read-out: IC50",6.3 µM
same,IC50,[3],3.1 µM
same,IC50,[4],> 0.098 µM
same,IC50,[5],0.19 µM
same,IC50,[6],> 0.098 µM
same,IC50,[7],0.19 µM
same,IC50,[8],13 µM
same,IC50,[9],> 0.098 µM
same,IC50,[10],> 0.098 µM
same,IC50,[11],1.6 µM
same,IC50,[12],> 0.098 µM
same,IC50,[13],1.6 µM
same,IC50,[14],3.1 µM
same,IC50,[15],0.098 µM
same,water solubility,[16],enhanced water solubility as compared to Compound 153; also recorded: more water soluble derivative of Compound 153
CCN[C@H]1CO[C@@H](O[C@H]2[C@H](O[C@H]3C#C/C=C\C#C[C@]4(O)CC(=O)C(NC(=O)OC)=C3/C4=C\CSSSC)O[C@H](C)[C@@H](NO[C@H]3C[C@H](O)[C@H](SC(=O)c4c(C)c(I)c(O[C@@H]5O[C@@H](C)[C@H](O)[C@@H](OC)[C@H]5O)c(OC)c4OC)[C@@H](C)O3)[C@@H]2O)C[C@@H]1OC [Calicheamicin],IC50,"[2]; control drugs, read-out: Range of Average IC50 Values, NHDF",0.0025 µM
same,DNA cleavage sequence specificity,[17],double DNA strand cuts at specific sequences
same,LD50,[18],5 µg/kg
O=C(Oc1ccccc1)N1c2ccccc2C23OC24CCCC3(O)C#C/C=C\C#CC14 (stereo not drawn) [Compound 2],IC50,[19],6.3 µM
same,anti-tumor cell activity,[20],more active against the cancerous MB-49 cells than against non-transformed CV-1 African green monkey kidney cells (ATCC CCL 70) or WI-38 human lung cells
